Test system: tobacco budworm (Heliothis virescens [Fabricius])
Experiment: surface-treated diet test against tobacco budworm
Format: in vivo
Settings: for Percent Growth Inhibition: inhibition of insect weight relative to untreated controls
Experimental: Candidate insecticides were evaluated for activity against the tobacco budworm (Heliothis virescens [Fabricius]) in a surface-treated diet test.
In this test one mL of molten (65-70° C.) wheat germ-based artificial diet was pipetted into each well of a four by six (24 well) multi-well plate (ID# 430345-15.5 mm dia.×17.6 mm deep; Corning Costar Corp., One Alewife Center, Cambridge, Mass. 02140). The diet was allowed to cool to ambient temperature before treatment with candidate insecticide.
For a determination of insecticidal activity, solutions of the candidate insecticides were prepared for testing using a Packard 204DT Multiprobe® Robotic System (Packard Instrument Company, 800 Research Parkway, Meriden, Conn. 06450), in which the robot first diluted a standard 50 millimolar DMSO solution of candidate insecticide with a 1:1 water/acetone solution (V/V) in a ratio of 1:7 stock solution to water/acetone. The robot subsequently pipetted 40 microliters of the so-prepared solution onto the surface of the diet in each of three wells in the 24 multi-well plate. The process was repeated with solutions of seven other candidate insecticides. Once treated, the contents of the multi-well plate were allowed to dry, leaving 0.25 millimoles of candidate insecticide on the surface of the diet, or a concentration of 0.25 millimolar. Appropriate untreated controls containing only DMSO on the diet surface were also included in this test.
For evaluations of the insecticidal activity of a candidate insecticide at varying rates of application, the test was established as described above using sub-multiples of the standard 50 millimolar DMSO solution of candidate insecticide. For example, the standard 50 millimolar solution was diluted by the robot with DMSO to give 5, 0.5, 0.05, 0.005, 0.0005 millimolar, or more dilute solutions of the candidate insecticide. In these evaluations there were six replicates of each rate of application placed on the surface of the diet in the 24 multi-well plate, for a total of four rates of application of candidate insecticide in each plate.
In each well of the test plate was placed one second instar tobacco budworm larvae, each weighing approximately five milligrams. After the larvae were placed in each well, the plate was sealed with clear polyfilm adhesive tape. The tape over each well was perforated to ensure an adequate air supply. The plates were then held in a growth chamber at 25° C. and 60% relative humidity for five days (light 14 hours/day).
After the five-day exposure period insecticidal activity for each rate of application of candidate insecticide was assessed as percent inhibition of insect weight relative to the weight of insects from untreated controls, and percent mortality when compared to the total number of insects infested.
The test compounds of formula I are identified by numbers that correspond to those in Table 1.

[1] = 0.25 millimolar on the surface of the diet, second instar larvae, five-day exposure, compared to the total number of insects infested
[2] = 0.25 millimolar on the surface of the diet, second instar larvae, five-day exposure

Compound: [O-][N+]1(Cc2ccc(C3O[C@H]4COC[C@H]4O3)cc2)CCC(C(O)(c2ccc(OC(F)(F)F)cc2)c2ccc(OC(F)(F)F)cc2)CC1 (stereo partly drawn) [Compound 118]
- Percent Mortality [1]: 100%
- Percent Growth Inhibition [2]: 100%

Compound: OC(c1ccc(OC(F)(F)F)cc1)(c1ccc(OC(F)(F)F)cc1)C1CCN(Cc2ccc(C3O[C@H]4CCC[C@H]4O3)cc2)CC1 (stereo partly drawn) [Compound 119]
- Percent Mortality [1]: 100%
- Percent Growth Inhibition [2]: 100%

Compound: CC1OC(c2ccc(CN3CCC(C(O)(c4ccc(OC(F)(F)F)cc4)c4ccc(OC(F)(F)F)cc4)CC3)cc2)OC1C (stereo not drawn) [Compound 121]
- Percent Mortality [1]: 100%
- Percent Growth Inhibition [2]: 100%

Compound: CC1(C)OC(c2ccc(CN3CCC(C(O)(c4ccc(OC(F)(F)F)cc4)c4ccc(OC(F)(F)F)cc4)CC3)cc2)OC1(C)C [Compound 122]
- Percent Mortality [1]: 100%
- Percent Growth Inhibition [2]: 100%

Compound: [O-][N+]1(Cc2ccc(C3O[C@H]4CCC[C@H]4O3)cc2)CCC(C(O)(c2ccc(OC(F)(F)F)cc2)c2ccc(OC(F)(F)F)cc2)CC1 (stereo partly drawn) [Compound 123]
- Percent Mortality [1]: 100%
- Percent Growth Inhibition [2]: 100%

Compound: CC1(C)OC(c2ccc(C[N+]3([O-])CCC(C(O)(c4ccc(OC(F)(F)F)cc4)c4ccc(OC(F)(F)F)cc4)CC3)cc2)OC1(C)C (stereo not drawn) [Compound 126]
- Percent Mortality [1]: 100%
- Percent Growth Inhibition [2]: 100%

Compound: OC(c1ccc(OC(F)(F)F)cc1)(c1ccc(OC(F)(F)F)cc1)C1CCN(Cc2ccc(C3OC4CCCCC4O3)cc2)CC1 (stereo not drawn) [Compound 127]
- Percent Mortality [1]: 100%
- Percent Growth Inhibition [2]: 100%

Compound: OC(c1ccc(Cl)c(Cl)c1)(c1ccc(Cl)c(Cl)c1)C1CCN(Cc2ccc(C3OCCO3)cc2)CC1 [Compound 145]
- Percent Mortality [1]: 100%
- Percent Growth Inhibition [2]: 100%

Compound: Cc1cc(CN2CCC(C(O)(c3ccc(OC(F)(F)F)cc3)c3ccc(OC(F)(F)F)cc3)CC2)ccc1C1OCCO1 [Compound 169]
- Percent Growth Inhibition [2]: 100%
- Percent Mortality (in vivo): 100%

Compound: Cc1cc(C[N+]2([O-])CCC(C(O)(c3ccc(OC(F)(F)F)cc3)c3ccc(OC(F)(F)F)cc3)CC2)ccc1C1OCCO1 (stereo not drawn) [Compound 170]
- Percent Growth Inhibition [2]: 100%
- Percent Mortality (in vivo): 100%

Compound: OC(c1ccc(OC(F)(F)F)cc1)(c1ccc(OC(F)(F)F)cc1)C1CCN(Cc2ccc(C3OCCO3)c(Cl)c2)CC1 [Compound 171]
- Percent Mortality [1]: 100%
- Percent Growth Inhibition [2]: 100%

Compound: OC(c1ccc(OC(F)(F)F)cc1)(c1ccc(OC(F)(F)F)cc1)C1CCN(Cc2ccc(C3OCCO3)c(C(F)(F)F)c2)CC1 [Compound 172]
- Percent Mortality [1]: 100%
- Percent Growth Inhibition [2]: 100%

Compound: OC(c1ccc(OC(F)(F)F)cc1)(c1ccc(OC(F)(F)F)cc1)C1CCN(Cc2ccc(C3OCCO3)c(F)c2)CC1 [Compound 173]
- Percent Mortality [1]: 100%
- Percent Growth Inhibition [2]: 100%

Compound: [O-][N+]1(Cc2ccc(C3OCCO3)c(F)c2)CCC(C(O)(c2ccc(OC(F)(F)F)cc2)c2ccc(OC(F)(F)F)cc2)CC1 (stereo not drawn) [Compound 175]
- Percent Mortality [1]: 100%
- Percent Growth Inhibition [2]: 100%

Compound: CC1COC(c2ccc(CN3CCC(C(O)(c4ccc(Cl)c(Cl)c4)c4ccc(Cl)c(Cl)c4)CC3)cc2)O1 (stereo not drawn) [Compound 176]
- Percent Mortality [1]: 100%
- Percent Growth Inhibition [2]: 100%

Compound: CC1COC(c2ccc(C[N+]3([O-])CCC(C(O)(c4ccc(Cl)c(Cl)c4)c4ccc(Cl)c(Cl)c4)CC3)cc2)O1 (stereo not drawn) [Compound 177]
- Percent Mortality [1]: 100%
- Percent Growth Inhibition [2]: 100%

Compound: CC1COC(c2ccc(CN3CCC(C(c4ccc(OC(F)(F)F)cc4)c4ccc(OC(F)(F)F)cc4)CC3)cc2)O1 (stereo not drawn) [Compound 178]
- Percent Mortality [1]: 100%
- Percent Growth Inhibition [2]: 100%

Compound: CC1COC(c2ccc(CN3CCC(C(O)(c4ccc(OC(F)(F)F)cc4)c4ccc(OC(F)(F)F)cc4)CC3)cc2F)O1 (stereo not drawn) [Compound 179]
- Percent Mortality [1]: 100%
- Percent Growth Inhibition [2]: 100%

Compound: CC1COC(c2ccc(C[N+]3([O-])CCC(C(O)(c4ccc(OC(F)(F)F)cc4)c4ccc(OC(F)(F)F)cc4)CC3)cc2F)O1 (stereo not drawn) [Compound 180]
- Percent Mortality [1]: 100%
- Percent Growth Inhibition [2]: 100%

Compound: [O-][N+]1(Cc2ccc(C3OCCO3)c(Cl)c2)CCC(C(O)(c2ccc(OC(F)(F)F)cc2)c2ccc(OC(F)(F)F)cc2)CC1 (stereo not drawn) [Compound 181]
- Percent Mortality [1]: 100%
- Percent Growth Inhibition [2]: 100%

Compound: [O-][N+]1(Cc2ccc(C3OCCO3)c(C(F)(F)F)c2)CCC(C(O)(c2ccc(OC(F)(F)F)cc2)c2ccc(OC(F)(F)F)cc2)CC1 (stereo not drawn) [Compound 182]
- Percent Mortality [1]: 100%
- Percent Growth Inhibition [2]: 100%

Compound: OC(c1ccc(OC(F)(F)F)cc1)(c1ccc(OC(F)(F)F)cc1)C1CCN(Cc2ccc(CC3OCCO3)cc2)CC1 [Compound 183]
- Percent Mortality [1]: 100%
- Percent Growth Inhibition [2]: 100%

Compound: [O-][N+]1(Cc2ccc(CC3OCCO3)cc2)CCC(C(O)(c2ccc(OC(F)(F)F)cc2)c2ccc(OC(F)(F)F)cc2)CC1 (stereo not drawn) [Compound 184]
- Percent Mortality [1]: 100%
- Percent Growth Inhibition [2]: 100%

Compound: [O-][N+]1(Cc2ccc(OCC3(c4ccccc4)OCCO3)cc2)CCC(C(O)(c2ccc(OC(F)(F)F)cc2)c2ccc(OC(F)(F)F)cc2)CC1 (stereo not drawn) [Compound 185]
- Percent Mortality [1]: 100%
- Percent Growth Inhibition [2]: 100%

Compound: OC(c1ccc(OC(F)(F)F)cc1)(c1ccc(OC(F)(F)F)cc1)C1CCN(Cc2ccc(OCC3(c4ccccc4)OCCO3)cc2)CC1 [Compound 186]
- Percent Mortality [1]: 100%
- Percent Growth Inhibition [2]: 100%

Compound: OC(c1ccc(OC(F)(F)F)cc1)(c1ccc(OC(F)(F)F)cc1)C1CCN(Cc2ccc(OCC3OCCO3)cc2)CC1 [Compound 187]
- Percent Mortality [1]: 100%
- Percent Growth Inhibition [2]: 100%

Compound: [O-][N+]1(Cc2ccc(OCC3OCCO3)cc2)CCC(C(O)(c2ccc(OC(F)(F)F)cc2)c2ccc(OC(F)(F)F)cc2)CC1 (stereo not drawn) [Compound 188]
- Percent Mortality [1]: 100%
- Percent Growth Inhibition [2]: 100%

Compound: CC1(C)OCC(COc2ccc(CN3CCC(C(O)(c4ccc(OC(F)(F)F)cc4)c4ccc(OC(F)(F)F)cc4)CC3)cc2)O1 (stereo not drawn) [Compound 189, bis[4-(trifluoromethoxy)-phenyl][1-({4-[(2,2-dimethyl(1,3-dioxolan-4-yl))methoxy]phenyl}methyl)(4-piperidyl)]methan-1-ol]
- Percent Mortality [1]: 100%
- Percent Growth Inhibition [2]: 100%

Compound: CC1(C)OCC(COc2ccc(C[N+]3([O-])CCC(C(O)(c4ccc(OC(F)(F)F)cc4)c4ccc(OC(F)(F)F)cc4)CC3)cc2)O1 (stereo not drawn) [Compound 190, bis[4-(trifluoromethoxy)phenyl][1-({4-[(2,2-dimethyl-(1,3-dioxolan-4-yl))methoxy]phenyl}methyl)(4-piperidyl)]methan-1-ol, N-oxide]
- Percent Mortality [1]: 100%
- Percent Growth Inhibition [2]: 100%

Compound: COc1ccc(C2(COc3ccc(C[N+]4([O-])CCC(C(O)(c5ccc(OC(F)(F)F)cc5)c5ccc(OC(F)(F)F)cc5)CC4)cc3)OCCO2)cc1 (stereo not drawn) [Compound 191]
- Percent Mortality [1]: 100%
- Percent Growth Inhibition [2]: 100%

Compound: COc1ccc(C2(COc3ccc(CN4CCC(C(O)(c5ccc(OC(F)(F)F)cc5)c5ccc(OC(F)(F)F)cc5)CC4)cc3)OCCO2)cc1 [Compound 192]
- Percent Mortality [1]: 100%
- Percent Growth Inhibition [2]: 100%

Compound: CC1COC(COc2ccc(CN3CCC(C(O)(c4ccc(OC(F)(F)F)cc4)c4ccc(OC(F)(F)F)cc4)CC3)cc2)O1 (stereo not drawn) [Compound 193]
- Percent Mortality [1]: 100%
- Percent Growth Inhibition [2]: 100%

Compound: CC1COC(COc2ccc(C[N+]3([O-])CCC(C(O)(c4ccc(OC(F)(F)F)cc4)c4ccc(OC(F)(F)F)cc4)CC3)cc2)O1 (stereo not drawn) [Compound 194]
- Percent Mortality [1]: 100%
- Percent Growth Inhibition [2]: 100%

Compound: COCC1COC(COc2ccc(CN3CCC(C(O)(c4ccc(OC(F)(F)F)cc4)c4ccc(OC(F)(F)F)cc4)CC3)cc2)O1 (stereo not drawn) [Compound 195]
- Percent Mortality [1]: 100%
- Percent Growth Inhibition [2]: 100%

Compound: CCC1COC(COc2ccc(CN3CCC(C(O)(c4ccc(OC(F)(F)F)cc4)c4ccc(OC(F)(F)F)cc4)CC3)cc2)O1 (stereo not drawn) [Compound 196]
- Percent Mortality [1]: 100%
- Percent Growth Inhibition [2]: 100%

Compound: COCC1COC(COc2ccc(C[N+]3([O-])CCC(C(O)(c4ccc(OC(F)(F)F)cc4)c4ccc(OC(F)(F)F)cc4)CC3)cc2)O1 (stereo not drawn) [Compound 197]
- Percent Mortality [1]: 100%
- Percent Growth Inhibition [2]: 100%
